Experiments:
Assay in all cases: Bliss excess, mean over the matrix (fraction); higher = more synergy
[1] = tested on: MES-SA (Other Solid Carcinomas)
In short: (§1)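 Bliss excess equals the observed combination effect minus the expected value EA + EB − EA·EB, where EA and EB are the effects of each agent alone. Combination Emax is the second-highest inhibition within the matrix. Inhibition was scaled from CellTiter-Glo 2.0 luminescence, with 0 set by vehicle wells and 1 by blank wells, after 72 hours of two-drug dosing of cells plated in 1536-well plates.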

SK-MEL-1 (Melanoma) = tested on: SK-MEL-1 (Melanoma)
In short: as §1

[2] = tested on: PA-TU-8902 (Pancreatic Carcinoma)
In short: as §1

[3] = tested on: JHH-6 (Hepatocellular Carcinoma)
In short: as §1

[4] = tested on: NOMO-1 (Acute Myeloid Leukemia)
In short: as §1

[5] = tested on: SNG-M (Endometrial Carcinoma)
In short: as §1

[6] = tested on: BICR78 (Oral Cavity Carcinoma)
In short: as §1

Saos-2 (Osteosarcoma) = tested on: Saos-2 (Osteosarcoma)
In short: as §1

[7] = tested on: YT (Other Blood Carcinomas)
In short: as §1

[8] = tested on: TYK-nu (Ovarian Carcinoma)
In short: as §1

[9] = tested on: SLVL (B-Cell Non-Hodgkin's Lymphoma)
In short: as §1

H4 (Low Grade Glioma) = tested on: H4 (Low Grade Glioma)
In short: as §1

[10] = tested on: HCT-116 (Colorectal Carcinoma)
In short: as §1

[11] = tested on: EKVX (Non-Small Cell Lung Carcinoma)
In short: as §1

[12] = tested on: SKN-3 (Head and Neck Carcinoma)
In short: as §1

[13] = tested on: WSU-DLCL2 (B-Cell Non-Hodgkin's Lymphoma)
In short: as §1

[14] = tested on: HCC-827 (Lung Adenocarcinoma)
In short: as §1

A172 (Glioblastoma) = tested on: A172 (Glioblastoma)
In short: as §1

[15] = tested on: RCC10RGB (Kidney Carcinoma)
In short: as §1

[16] = tested on: EFM-192A (Breast Carcinoma)
In short: as §1

SMILES | Bliss excess [1] | Bliss excess (SK-MEL-1 (Melanoma)) | Bliss excess [2] | Bliss excess [3] | Bliss excess [4] | Bliss excess [5] | Bliss excess [6] | Bliss excess (Saos-2 (Osteosarcoma)) | Bliss excess [7] | Bliss excess [8] | Bliss excess [9] | Bliss excess (H4 (Low Grade Glioma)) | Bliss excess [10] | Bliss excess [11] | Bliss excess [12] | Bliss excess [13] | Bliss excess [14] | Bliss excess (A172 (Glioblastoma)) | Bliss excess [15] | Bliss excess [16]
CC1(C)CCC(CN2CCN(c3ccc(C(=O)NS(=O)(=O)c4ccc(NCC5CCOCC5)c([N+](=O)[O-])c4)c(Oc4cnc5[nH]ccc5c4)c3)CC2)=C(c2ccc(Cl)cc2)C1 [Venetoclax] + C=CCn1c(=O)c2cnc(Nc3ccc(N4CCN(C)CC4)cc3)nc2n1-c1cccc(C(C)(C)O)n1 [AZD1775] (first compound max 1 µM, partner max 1 µM) | -0.0606 | -0.0539 | -0.0622 | -0.0348 | 0.0689 | -0.0002 | 0.0011 | 0.0339 | -0.0039 | -0.107 | 0.0249 | 0.0732 | -0.0765 | -0.075 | -0.0949 | 0.0465 | -0.0764 | -0.0833 | -0.0374 | -0.0253
CC1(C)CCC(CN2CCN(c3ccc(C(=O)NS(=O)(=O)c4ccc(NCC5CCOCC5)c([N+](=O)[O-])c4)c(Oc4cnc5[nH]ccc5c4)c3)CC2)=C(c2ccc(Cl)cc2)C1 [Venetoclax] + CCN(CCO)CCCOc1ccc2c(Nc3cc(CC(=O)Nc4cccc(F)c4)[nH]n3)ncnc2c1 [AZD2811] (first compound max 1 µM, 7x7, partner max 1 µM) | 0.0315 | -0.022 | -0.0417 | -0.049 | 0.182 | -0.0246 | -0.0393 | 0.0727 | -0.0328 | -0.0266 | 0.0685 | 0.0007 | 0.008 | -0.044 | -0.0167 | 0.301 | -0.015 | -0.0296 | -0.066 | 0.0097
CC1(C)CCC(CN2CCN(c3ccc(C(=O)NS(=O)(=O)c4ccc(NCC5CCOCC5)c([N+](=O)[O-])c4)c(Oc4cnc5[nH]ccc5c4)c3)CC2)=C(c2ccc(Cl)cc2)C1 [Venetoclax] + CN(C)CCCOc1ccc(-c2ccc3ncc4c(c3c2)n(C2CCOCC2)c(=O)n4C)cn1 [AZD0156] (first compound max 1 µM, 7x7, partner max 1 µM) | -0.0333 | -0.0397 | -0.0507 | -0.0391 | 0.0226 | -0.06 | 0.0047 | -0.0364 | 0.0204 | -0.0516 | 0.058 | -0.0861 | -0.0286 | -0.0365 | -0.0221 | 0.0518 | -0.0453 | -0.0482 | -0.0677 | -0.0508
CC1(C)CCC(CN2CCN(c3ccc(C(=O)NS(=O)(=O)c4ccc(NCC5CCOCC5)c([N+](=O)[O-])c4)c(Oc4cnc5[nH]ccc5c4)c3)CC2)=C(c2ccc(Cl)cc2)C1 [Venetoclax] + COc1cc(Nc2ncc3c(n2)-c2ccc(Cl)cc2C(c2c(F)cccc2OC)=NC3)ccc1C(=O)O [Alisertib] (first compound max 1 µM, 7x7, partner max 10 µM) | -0.0225 | 0.0439 | -0.0664 | -0.0311 | 0.0906 | -0.0189 | -0.0276 | 0.047 | 0.1 | -0.0415 | 0.0761 | -0.0124 | -0.0043 | -0.0457 | -0.0565 | 0.238 | -0.0795 | -0.108 | -0.0943 | -0.0548
CC1(C)CCC(CN2CCN(c3ccc(C(=O)NS(=O)(=O)c4ccc(NCC5CCOCC5)c([N+](=O)[O-])c4)c(Oc4cnc5[nH]ccc5c4)c3)CC2)=C(c2ccc(Cl)cc2)C1 [Venetoclax] + C[C@@H]1COCCN1C2=NC(=NC(=C2)C3(CC3)[S@](=N)(=O)C)C4=C5C=CNC5=NC=C4 [AZD6738] (first compound max 1 µM, 7x7, partner max 10 µM) | 0.0105 | -0.027 | -0.0236 | -0.03 | 0.015 | -0.0296 | -0.0397 | -0.0316 | 0.0174 | -0.0315 | -0.0162 | -0.0301 | -0.0703 | -0.054 | -0.043 | 0.0423 | -0.0418 | -0.0141 | -0.0242 | -0.0377
CC1(C)CCC(CN2CCN(c3ccc(C(=O)NS(=O)(=O)c4ccc(NCC5CCOCC5)c([N+](=O)[O-])c4)c(Oc4cnc5[nH]ccc5c4)c3)CC2)=C(c2ccc(Cl)cc2)C1 [Venetoclax] + C[C@@H](Nc1cc(F)cc(F)c1)c1cc(C(=O)N(C)C)cc2c(=O)cc(N3CCOCC3)oc12 [AZD8186] (first compound max 1 µM, 7x7, partner max 3 µM) | -0.0299 | -0.0239 | -0.0453 | -0.0135 | 0.0654 | -0.0551 | -0.0423 | 0 | 0.0317 | -0.0103 | 0.0395 | -0.0302 | -0.0421 | 0.0566 | -0.0192 | 0.0951 | -0.0146 | -0.0414 | -0.0866 | -0.0501
CC1(C)CCC(CN2CCN(c3ccc(C(=O)NS(=O)(=O)c4ccc(NCC5CCOCC5)c([N+](=O)[O-])c4)c(Oc4cnc5[nH]ccc5c4)c3)CC2)=C(c2ccc(Cl)cc2)C1 [Venetoclax] + Cc1cc2ncnn2cc1Nc1ncc2c(n1)n(C1CCOCC1)c(=O)n2C [AZD7648] (first compound max 1 µM, 7x7, partner max 10 µM) | -0.0384 | -0.0242 | -0.0715 | -0.0302 | 0.02 | -0.0516 | -0.0493 | -0.0075 | -0.0667 | -0.0074 | 0.0013 | -0.0541 | 0.0048 | -0.0788 | -0.0193 | 0.0706 | 0.0085 | -0.0385 | -0.0536 | -0.0046
CC1(C)CCC(CN2CCN(c3ccc(C(=O)NS(=O)(=O)c4ccc(NCC5CCOCC5)c([N+](=O)[O-])c4)c(Oc4cnc5[nH]ccc5c4)c3)CC2)=C(c2ccc(Cl)cc2)C1 [Venetoclax] + Cn1cnc2c(F)c(Nc3ccc(Br)cc3Cl)c(C(=O)NOCCO)cc21 [Selumetinib] (first compound max 1 µM, 7x7, partner max 3 µM) | -0.0129 | -0.0332 | -0.0178 | -0.0252 | 0.0999 | -0.0282 | -0.0354 | -0.0057 | 0.0297 | -0.0594 | 0.0299 | 0.006 | -0.0255 | -0.0732 | 0.019 | 0.0196 | -0.0212 | -0.0176 | -0.079 | -0.0245
